Laboratory results as given in PubChem BioAssay AID1963826 (Molecular Pharmacology Branch, DTP, NCI, 2024).

Test system: 926638-142-R-J1-PDC complex spheroid viability
Experiment: Anticancer human tumor 926638-142-R-J1-PDC patient-derived endometrial carcinoma cell line growth inhibition [POLQ]
Settings: for IC50: curve of first compound; for viability, T/C: stronger effect = lower value
Protocol: Multicellular complex tumor spheroid response to Polymerase (POL) inhibitors (novobiocin, ART-558, RP6685) in combination with a variety of drugs and investigational agents in selected tumor cell lines
The POL inhibitors (novobiocin, ART-558, and RP6685) were evaluated both individually and in combination with standard of care and investigational anticancer small molecules within a complex spheroid model of solid tumors. . Complex spheroids include a stromal component modeled by human endothelial cells (HUVEC) and fibroblasts modeled by human mesenchymal stem cells (MSCs). The concentration ranges selected for each drug and investigational agent were based upon clinically achievable concentrations if the clinical Cmax of the agent was known.
Compounds. The drugs and investigational agents: novobiocin (NSC847541), ART-558 (NSC835418), RP-6685 (NSC848927), peposertib (NSC802822), ceralasertib (NSC780249), elimusertib (NSC800525), camonsertib (NSC841442), AZD-1390 (NSC803789), olaparib (NSC753686), talazoparib (NSC767125), rucaparib (NSC756644), sotorasib (NSC818433), MRTX-1133 (NSC836407), SN-38 (NSC673596), topotecan (NSC609699), epotoside (NSC141540), doxorubicin (NSC123127), gemcitabine (NSC613327), 5-fluorouracil (NSC19893), paclitaxel (NSC125973), vemurafenib (NSC761431), MSA-2 (NSC828583), SN-011 (NSC837082), adavosertib (NSC754352), prexasertib (NSC758257), carboplatin (NSC241240) and oxaliplatin (NSC266046), were obtained from the National Cancer Institute (NCI) Developmental Therapeutics Program Chemical Repository (21). The FDA-approved anticancer drug set is available from the Developmental Therapeutics Program at https://dtp.cancer.gov/organization/dscb/obtaining/. […] The stock solutions were prepared in dimethyl sulfoxide (DMSO, Sigma-Aldrich, St. Louis, MO, cat. D2650), except for the platinum compounds which were prepared in saline (Quality Biological, Gaithersburg, MD, cat. 114-055-101), at 800-fold the tested concentration and stored at -70 degrees C prior to their use. All drugs and investigational agents were tested over a range starting from a high concentration at or near the clinical Cmax and decreasing in half-log increments. If the clinical Cmax for an agent had not been determined, the highest concentration tested was 10 microM, except for SN-38, which was tested at a high concentration of 1 microM.
Cell Culture. All cells were maintained in an incubator at 37 degrees C and 5% CO2 with 95% humidity. The PDC lines were cultured according to standard operating procedures established by the NCI PDMR (https://pdmr.cancer.gov). Table 3 of the manuscript, lists the cell lines along with the number of the three cell types plated to form the mct-spheroids and media for tumor cell growth. After thawing, all PDC lines, except 997537-175-T-J1-PDC and 415267-285-R-J2-PDC, were cultured in Matrigel-coated flasks prepared with a working solution of 1X Ham's F-12 nutrient mix, without supplementation (Thermo Fisher Scientific, cat. 11765054), 100 U/mL penicillin-streptomycin (Thermo Fisher Scientific, cat. 15140122), and 2.5% Matrigel (Corning Inc., Corning, NY, cat. 354248) for the first three passages. The two PDC lines 997537-175-T-J1-PDC and 415267-285-R-J2-PDC were cultured on uncoated flasks. The 857933-349-R-J2-PDC line was cultured in 6C/Colon 1B media containing advanced DMEM/F-12 (Thermo Fisher Scientific, cat. 12634028), 10 mM HEPES (Thermo Fisher Scientific, cat. 15630080), 1X GlutaMAX supplement (Thermo Fisher Scientific, cat. 35050061), 0.1 mg/mL primocin (InvivoGen, San Diego, CA, cat. ant-pm-2), 10% defined fetal bovine serum, heat inactivated (HyClone Laboratories Inc., Logan, UT, cat. SH30070.03HI), 50% L-WRN conditioned media (ATCC, cat. CRL-3276), 1.25 mM N-Acetyl-L-cysteine (Sigma-Aldrich, cat. A9165), 10 mM nicotinamide (Sigma-Aldrich, cat. N0636), 1X B-27 supplement (Thermo Fisher Scientific, cat. 17504044), 1X N-2 supplement (Thermo Fisher Scientific, cat. […]

[1] = second compound 0.0316 µM, first compound 0.0316 µM
[2] = second compound 0.0316 µM, first compound 0.1 µM
[3] = second compound 0.1 µM, first compound 0.0316 µM
[4] = second compound 0.1 µM, first compound 0.1 µM
[5] = second compound 0.316 µM, first compound 0.0316 µM
[6] = second compound 0.316 µM, first compound 0.1 µM
[7] = second compound 1 µM, first compound 0.0316 µM
[8] = second compound 1 µM, first compound 0.1 µM
[9] = second compound 3.16 µM, first compound 0.0316 µM
[10] = second compound 3.16 µM, first compound 0.1 µM
[11] = second compound 10 µM, first compound 0.0316 µM
[12] = second compound 10 µM, first compound 0.1 µM
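Also: spheroids exposed to drugs for one week before readout.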
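For viability, T/C in this document: percent viability relative to DMSO vehicle control wells set as 100%.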

`Cn1ncnc1[C@H]1c2n[nH]c(=O)c3cc(F)cc(c23)N[C@@H]1c1ccc(F)cc1` + COC1C(OC(N)=O)C(O)C(Oc2ccc3c(O)c(NC(=O)c4ccc(O)c(CC=C(C)C)c4)c(=O)oc3c2C)OC1(C)C was tested, and the IC50 (second compound 0.0316 µM) was > 0.1 µM, the IC50 (second compound 0.1 µM) was > 0.1 µM and the IC50 (second compound 0.316 µM) was > 0.1 µM. For the same compound, the IC50 (second compound 1 µM) was > 0.1 µM, the IC50 (second compound 3.16 µM) was > 0.1 µM and the IC50 (second compound 10 µM) was > 0.1 µM. The viability, T/C (second compound 0.0316 µM, first compound 0.000316 µM) was 84.5%, the viability, T/C (second compound 0.0316 µM, first compound 0.001 µM) was 83.7% and the viability, T/C (second compound 0.0316 µM, first compound 0.00316 µM) was 81.7%. The viability, T/C (second compound 0.0316 µM, first compound 0.01 µM) was 86.5%, the viability, T/C [1] was 71.5% and the viability, T/C [2] was 79.5%. The viability, T/C (second compound 0.1 µM, first compound 0.000316 µM) was 106%, the viability, T/C (second compound 0.1 µM, first compound 0.001 µM) was 96.4% and the viability, T/C (second compound 0.1 µM, first compound 0.00316 µM) was 86%. The viability, T/C (second compound 0.1 µM, first compound 0.01 µM) was 90.5%, the viability, T/C [3] was 76.3% and the viability, T/C [4] was 69.5%. It also gave a viability, T/C (second compound 0.316 µM, first compound 0.000316 µM) of 117%, a viability, T/C (second compound 0.316 µM, first compound 0.001 µM) of 86.4% and a viability, T/C (second compound 0.316 µM, first compound 0.00316 µM) of 72.7%. It also gave a viability, T/C (second compound 0.316 µM, first compound 0.01 µM) of 78.5%, a viability, T/C [5] of 69.7% and a viability, T/C [6] of 60.3%. The viability, T/C (second compound 1 µM, first compound 0.000316 µM) was 85.5%, the viability, T/C (second compound 1 µM, first compound 0.001 µM) was 94.1% and the viability, T/C (second compound 1 µM, first compound 0.00316 µM) was 92.3%. The viability, T/C (second compound 1 µM, first compound 0.01 µM) was 60.1%, the viability, T/C [7] was 78.6% and the viability, T/C [8] was 76.7%. The viability, T/C (second compound 3.16 µM, first compound 0.000316 µM) was 68.5%, the viability, T/C (second compound 3.16 µM, first compound 0.001 µM) was 81.7% and the viability, T/C (second compound 3.16 µM, first compound 0.00316 µM) was 74.3%. It also gave a viability, T/C (second compound 3.16 µM, first compound 0.01 µM) of 81.7%, a viability, T/C [9] of 78.5% and a viability, T/C [10] of 69.6%. The viability, T/C (second compound 10 µM, first compound 0.000316 µM) was 84.8%, the viability, T/C (second compound 10 µM, first compound 0.001 µM) was 90.2% and the viability, T/C (second compound 10 µM, first compound 0.00316 µM) was 77.6%. For the same compound, the viability, T/C (second compound 10 µM, first compound 0.01 µM) was 81%, the viability, T/C [11] was 82.4% and the viability, T/C [12] was 76.6%.

With `CNCc1ccc(-c2[nH]c3cc(F)cc4c3c2CCNC4=O)cc1` + COC1C(OC(N)=O)C(O)C(Oc2ccc3c(O)c(NC(=O)c4ccc(O)c(CC=C(C)C)c4)c(=O)oc3c2C)OC1(C)C the IC50 (second compound 0.0316 µM) was > 10 µM, the IC50 (second compound 0.1 µM) was > 10 µM and the IC50 (second compound 0.316 µM) was > 10 µM. The IC50 (second compound 1 µM) was > 10 µM, the IC50 (second compound 3.16 µM) was > 10 µM and the IC50 (second compound 10 µM) was > 10 µM. The viability, T/C [1] was 92%, the viability, T/C [2] was 82.2% and the viability, T/C (second compound 0.0316 µM, first compound 0.316 µM) was 96%. The viability, T/C (second compound 0.0316 µM, first compound 1 µM) was 81%, the viability, T/C (second compound 0.0316 µM, first compound 3.16 µM) was 87.7% and the viability, T/C (second compound 0.0316 µM, first compound 10 µM) was 76.7%. It also gave a viability, T/C [3] of 78.9%, a viability, T/C [4] of 99.9% and a viability, T/C (second compound 0.1 µM, first compound 0.316 µM) of 77.2%. The viability, T/C (second compound 0.1 µM, first compound 1 µM) was 89.2%, the viability, T/C (second compound 0.1 µM, first compound 3.16 µM) was 80.1% and the viability, T/C (second compound 0.1 µM, first compound 10 µM) was 81.2%. It also gave a viability, T/C [5] of 90.5%, a viability, T/C [6] of 81.1% and a viability, T/C (second compound 0.316 µM, first compound 0.316 µM) of 84.9%. The viability, T/C (second compound 0.316 µM, first compound 1 µM) was 90.5%, the viability, T/C (second compound 0.316 µM, first compound 3.16 µM) was 101% and the viability, T/C (second compound 0.316 µM, first compound 10 µM) was 84.6%. For the same compound, the viability, T/C [7] was 77.3%, the viability, T/C [8] was 73.9% and the viability, T/C (second compound 1 µM, first compound 0.316 µM) was 73.8%. It also gave a viability, T/C (second compound 1 µM, first compound 1 µM) of 89.9%, a viability, T/C (second compound 1 µM, first compound 3.16 µM) of 94.8% and a viability, T/C (second compound 1 µM, first compound 10 µM) of 69%. The viability, T/C [9] was 82.3%, the viability, T/C [10] was 93.9% and the viability, T/C (second compound 3.16 µM, first compound 0.316 µM) was 90.7%. The viability, T/C (second compound 3.16 µM, first compound 1 µM) was 71.2%, the viability, T/C (second compound 3.16 µM, first compound 3.16 µM) was 88.2% and the viability, T/C (second compound 3.16 µM, first compound 10 µM) was 85.2%. It also gave a viability, T/C [11] of 89.8%, a viability, T/C [12] of 79.9% and a viability, T/C (second compound 10 µM, first compound 0.316 µM) of 83.8%. For the same compound, the viability, T/C (second compound 10 µM, first compound 1 µM) was 70.5%, the viability, T/C (second compound 10 µM, first compound 3.16 µM) was 84.4% and the viability, T/C (second compound 10 µM, first compound 10 µM) was 83%.
